Key:
Type in all cases: in vitro ADME
CYP2C9 = molecular target: T1, CYP2C9 (Homo sapiens, UniProt P11712); experiment: CYP inhibition assay in human liver microsome, CYP2C9; settings: HLM, diclofenac substrate; for inhibition at 5 min, 10 µM: human, liver microsomes, probe diclofenac, read-out: CYP inhibition % @10 uM (2C9)
T1 construct: tissue BD-Gentest 452117; host or cells: human liver microsomes
Description: (§1) This is a high throughput screening assay used for assessment of reversible inhibition of CYP2C9, CYP2D6, and CYP3A4 activity of test compounds in human liver microsome (HLM) in early discovery stage.
(§2) 10 mM DMSO stock solutions of test compounds were diluted in DMSO to generate 2 mM intermediate stock solution. 250 nL of intermediate stock solution were transferred in duplicate into 3 separate 384 well microtitre plates (assay-ready plates). A mixture of HLM and each substrate was made up. 45 μL of HLM substrate mix was then transferred to each well of an assay ready plate and mixed. The negative (solvent) and positive controls (standard inhibitor for each CYP) were included in each assay ready plate. The assay ready plate was warmed to 37° C. in an incubator over 10 minutes. 5 μL pre-warmed NADPH regenerating system was added to each incubation well to start the reaction. Final incubation volume was 50 μL. The assay plate then was placed back in the 37° C. incubator. After 5 minutes incubation (10 minutes for CYP2D6), incubates were quenched by addition of 50 μL quench reagent containing internal standards (400 ng/mL 13C6-4′-OH-Diclofenac, 20 ng/mL D3-Dextrorphan and 20 ng/mL D4-1′OH-Midazolam in acetonitrile). The supernatants were collected for RapidFire/MS/MS analysis.
(§3) RapidFire online solid phase extraction/sample injection system (Agilent) coupled with API4000 triple quadrupole mass spectrometer (AB Sciex) were used for sample analysis. The mobile phase composed of acetonitrile and water supplemented with 0.1% formic acid. A C4 solid phase extraction cartridge is used for sample separation. MS detection is achieved in positive ion MRM mode.
(§4) Peak areas for substrate, metabolite and internal standard are determined using the
(§5) RapidFire integrator software (version 3.6.12009.12296). Peak area ratios (PAR) of metabolite and internal standard (stable-labelled metabolite) are then calculated. The measurement window for each experiment is then defined:
(§6) PAR (0% activity)=average PAR for all incubations containing concentrated inhibitor;
(§7) Par (100% activity)=average PAR for all incubations containing no inhibitor (DMSO controls);
(§8) % Activity (test inhibitor) =[PAR(test inhibitor)-PAR(0% activity)][PAR(100% activity)-PAR(0% activity)];
(§9) % Inhibition (test inhibitor)=100-% Activity (test inhibitor).
(§10) Percentage inhibition data are then reported, in duplicate, for the 3 CYP enzymes.

CYP2D6 = molecular target: T2, CYP2D6 (Homo sapiens, UniProt P10635); experiment: CYP inhibition assay in human liver microsome, CYP2D6; settings: HLM, dextromethorphan substrate; for inhibition at 10 min, 10 µM: human, liver microsomes, probe dextromethorphan, read-out: CYP inhibition % @10 uM (2D6)
T2 construct: tissue BD-Gentest 452117; host or cells: human liver microsomes
Description: as §1, §2, §3, §4, §5, §6, §7, §8, §9, §10

CYP3A4 = molecular target: T3, CYP3A4 (Homo sapiens, UniProt P08684); experiment: CYP inhibition assay in human liver microsome, CYP3A4; settings: HLM, midazolam substrate; for inhibition at 5 min, 10 µM: human, liver microsomes, probe midazolam, read-out: CYP inhibition % @10 uM (3A4)
T3 construct: tissue BD-Gentest 452117; host or cells: human liver microsomes
Description: as §1, §2, §3, §4, §5, §6, §7, §8, §9, §10

T2 sequence (P10635 whole entry): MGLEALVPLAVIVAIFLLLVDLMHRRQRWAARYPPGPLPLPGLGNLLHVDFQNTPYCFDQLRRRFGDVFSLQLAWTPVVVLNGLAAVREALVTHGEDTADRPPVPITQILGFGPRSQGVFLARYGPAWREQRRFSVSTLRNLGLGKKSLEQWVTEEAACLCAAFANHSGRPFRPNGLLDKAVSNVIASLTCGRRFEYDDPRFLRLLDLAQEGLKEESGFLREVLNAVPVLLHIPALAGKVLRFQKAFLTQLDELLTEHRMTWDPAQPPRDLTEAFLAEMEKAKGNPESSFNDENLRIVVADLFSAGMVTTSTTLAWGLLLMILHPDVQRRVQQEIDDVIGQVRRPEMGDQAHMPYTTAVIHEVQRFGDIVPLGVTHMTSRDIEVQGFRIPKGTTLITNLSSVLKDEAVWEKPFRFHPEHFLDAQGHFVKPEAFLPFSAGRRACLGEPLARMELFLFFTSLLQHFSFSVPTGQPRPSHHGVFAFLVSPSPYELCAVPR
T3 sequence (P08684 whole entry): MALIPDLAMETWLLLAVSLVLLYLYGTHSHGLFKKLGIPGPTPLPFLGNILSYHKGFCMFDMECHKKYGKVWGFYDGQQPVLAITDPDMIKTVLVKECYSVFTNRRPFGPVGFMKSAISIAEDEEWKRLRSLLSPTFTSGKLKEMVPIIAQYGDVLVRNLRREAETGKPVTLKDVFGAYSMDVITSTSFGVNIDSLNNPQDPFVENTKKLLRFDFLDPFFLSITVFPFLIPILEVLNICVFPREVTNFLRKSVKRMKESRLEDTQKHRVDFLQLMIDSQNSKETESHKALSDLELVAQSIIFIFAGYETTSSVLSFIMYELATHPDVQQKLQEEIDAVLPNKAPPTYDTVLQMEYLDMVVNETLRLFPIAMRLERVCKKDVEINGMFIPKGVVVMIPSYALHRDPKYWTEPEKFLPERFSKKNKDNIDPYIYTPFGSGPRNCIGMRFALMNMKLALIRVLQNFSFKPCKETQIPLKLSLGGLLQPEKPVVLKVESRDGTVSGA
T1 sequence (P11712 whole entry): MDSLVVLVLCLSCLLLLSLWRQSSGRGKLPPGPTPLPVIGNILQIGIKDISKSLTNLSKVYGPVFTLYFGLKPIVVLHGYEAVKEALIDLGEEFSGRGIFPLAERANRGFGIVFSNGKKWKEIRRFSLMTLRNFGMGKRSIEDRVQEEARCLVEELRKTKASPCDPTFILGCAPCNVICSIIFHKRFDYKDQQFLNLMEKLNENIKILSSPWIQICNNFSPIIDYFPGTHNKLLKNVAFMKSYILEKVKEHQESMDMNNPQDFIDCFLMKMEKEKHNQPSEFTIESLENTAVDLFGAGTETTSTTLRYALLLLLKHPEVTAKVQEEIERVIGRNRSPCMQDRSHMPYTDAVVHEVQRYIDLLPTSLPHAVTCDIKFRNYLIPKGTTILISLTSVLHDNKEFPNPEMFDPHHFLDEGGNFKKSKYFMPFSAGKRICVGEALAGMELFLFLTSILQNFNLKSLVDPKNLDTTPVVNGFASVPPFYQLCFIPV

inhibition at 5 min, 10 µM (CYP2C9) [%] | inhibition at 10 min, 10 µM (CYP2D6) [%] | inhibition at 5 min, 10 µM (CYP3A4) [%] | CYP inhibition % @10 uM (2C9) (CYP2C9) [%] | CYP inhibition % @10 uM (2D6) (CYP2D6) [%] | CYP inhibition % @10 uM (3A4) (CYP3A4) [%] | SMILES
26 | 9 | 5 | – | – | – | C[C@@H]1CN(c2ccc(C(F)(F)F)c3ncccc23)C[C@H](C(=O)N[C@@H]2CNC[C@@H]2F)O1 (single isomer, unassigned) [Example 2A]
10 | – | – | – | 8 | – | CC(NC(=O)[C@H]1CN(c2ccc(C(F)(F)F)c3ncccc23)C[C@@H](C)O1)C1CN(C)CCO1 (single isomer, unassigned) [Example 35A]
– | – | – | 6 | 2 | – | CC(NC(=O)[C@H]1CN(c2ccc(C(F)(F)F)c3ncccc23)C[C@@H](C)O1)C1CN(C)CCO1 (single isomer, unassigned) [Example 35B]
– | – | – | −1 | 2 | −25 | C[C@@H]1CN(c2ccc(C(F)(F)F)c3ncccc23)C[C@H](C(=O)NC2CC3CNCC32)O1 (single isomer, unassigned) [Example 49A]
– | – | – | −2 | −12 | −36 | C[C@@H]1CN(c2ccc(C(F)(F)F)c3ncccc23)C[C@H](C(=O)NC2CC3CNCC32)O1 (single isomer, unassigned) [Example 49B]
– | – | – | 11 | 8 | – | C[C@@H]1CN(c2ccc(C(F)(F)F)c3ncccc23)C[C@H](C(=O)NC2CC3CNCC32)O1 (single isomer, unassigned) [Example 49C]

More lines, now with the values behind:

SMILES | inhibition at 5 min, 10 µM (CYP2C9) [%] | inhibition at 10 min, 10 µM (CYP2D6) [%] | inhibition at 5 min, 10 µM (CYP3A4) [%] | CYP inhibition % @10 uM (2C9) (CYP2C9) [%] | CYP inhibition % @10 uM (2D6) (CYP2D6) [%] | CYP inhibition % @10 uM (3A4) (CYP3A4) [%]
C[C@@H]1CN(c2ccc(C(F)(F)F)c3ncccc23)C[C@H](C(=O)NC2CC3CCCC(C2)N3)O1 (single isomer, unassigned) [Example 34A] | – | – | – | −6 | 3 | –
C[C@@H]1CN(c2ccc(C(F)(F)F)c3ncccc23)C[C@H](C(=O)NC2CC3CCCC(C2)N3)O1 (single isomer, unassigned) [Example 34B] | – | – | -28 | −8 | −10 | –
C[C@@H]1CN(c2ccc(C(F)(F)F)c3ncccc23)C[C@H](C(=O)NCC2CN(C)CCO2)O1 (stereo partly drawn) [Example 3, (2R,6R)-6-methyl-N-[(4-methylmorpholin-2-yl)methyl]-4-[8-(trifluoromethyl)-5-quinolyl]morpholine-2-carboxamide] | -1 | 16 | -11 | – | – | –
C[C@@H]1CN(c2ccc(C(F)(F)F)c3ncccc23)C[C@H](C(=O)NCC2CCCCN2C)O1 (stereo partly drawn) [Example 4, (2R,6R)-6-methyl-N-[(1-methyl-2-piperidyl)methyl]-4-[8-(trifluoromethyl)-5-quinolyl]morpholine-2-carboxamide] | -12 | 10 | -14 | – | – | –
C[C@@H]1CN(c2ccc(C(F)(F)F)c3ncccc23)C[C@H](C(=O)NC2CCN(C)CC2)O1 [Example 5, (2R,6R)-6-methyl-N-(1-methyl-4-piperidyl)-4-[8-(trifluoromethyl)-5-quinolyl]morpholine-2-carboxamide] | -1 | 16 | -13 | – | – | –
C[C@@H]1CN(c2ccc(C(F)(F)F)c3ncccc23)C[C@H](C(=O)NCC(C)(C)N)O1 [Example 6, (2R,6R)-N-(2-amino-2-methyl-propyl)-6-methyl-4-[8-(trifluoromethyl)-5-quinolyl]morpholine-2-carboxamide] | -13 | 13 | -10 | – | – | –
C[C@@H]1CN(c2ccc(C(F)(F)F)c3ncccc23)C[C@H](C(=O)NC2CCCNCC2)O1 (stereo partly drawn) [Example 8, (2R,6R)-N-(azepan-4-yl)-6-methyl-4-[8-(trifluoromethyl)-5-quinolyl]morpholine-2-carboxamide] | -8 | 10 | -34 | – | – | –
C[C@@H]1CN(c2ccc(C(F)(F)F)c3ncccc23)C[C@H](C(=O)NC2CN(C)CC23CC3)O1 (stereo partly drawn) [Example 9, (2R,6R)-6-methyl-N-(5-methyl-5-azaspiro[2.4]heptan-7-yl)-4-[8-(trifluoromethyl)-5-quinolyl]morpholine-2-carboxamide] | 2 | 6 | -18 | – | – | –
C[C@@H]1CN(c2ccc(C(F)(F)F)c3ncccc23)C[C@H](C(=O)N2CCC(N)C2)O1 (stereo partly drawn) [Example 10, (3-aminopyrrolidin-1-yl)-[(2R,6R)-6-methyl-4-[8-(trifluoromethyl)-5-quinolyl]morpholin-2-yl]methanone] | 11 | 26 | 10 | – | – | –
C[C@@H]1CN(c2ccc(C(F)(F)F)c3ncccc23)C[C@H](C(=O)NCC2COCCN2C)O1 (stereo partly drawn) [Example 11, (2R,6R)-6-methyl-N-[(4-methylmorpholin-3-yl)methyl]-4-[8-(trifluoromethyl)-5-quinolyl]morpholine-2-carboxamide] | -4 | 5 | -28 | – | – | –
C[C@@H]1CN(c2ccc(C(F)(F)F)c3ncccc23)C[C@H](C(=O)N2CCC(N)CC2)O1 [Example 12, (4-amino-1-piperidyl)-[(2R,6R)-6-methyl-4-[8-(trifluoromethyl)-5-quinolyl]morpholin-2-yl]methanone] | 12 | 7 | – | – | – | –
C[C@@H]1CN(c2ccc(C(F)(F)F)c3ncccc23)C[C@H](C(=O)NCCN2CCOCC2)O1 [Example 13, (2R,6R)-6-methyl-N-(2-morpholinoethyl)-4-[8-(trifluoromethyl)-5-quinolyl]morpholine-2-carboxamide] | 1 | 0 | -22 | – | – | –
C[C@@H]1CN(c2ccc(C(F)(F)F)c3ncccc23)C[C@H](C(=O)NC2CNCCOC2)O1 (stereo partly drawn) [Example 14, (2R,6R)-6-methyl-N-(1,4-oxazepan-6-yl)-4-[8-(trifluoromethyl)-5-quinolyl]morpholine-2-carboxamide] | -2 | -1 | -24 | – | – | –
Cc1ccc(N2C[C@@H](C)C[C@@H](N)C2)c2cccnc12 [Example 15, (3R,5S)-5-methyl-1-(8-methyl-5-quinolyl)piperidin-3-amine] | -17 | -10 | -18 | – | – | –
Cc1ccc(N2C[C@@H](C)O[C@@H](C(=O)NC3CCN(C)CC3)C2)c2cccnc12 [Example 16, (2R,6R)-6-methyl-N-(1-methyl-4-piperidyl)-4-(8-methyl-5-quinolyl)morpholine-2-carboxamide] | -8 | 5 | 2 | – | – | –
C[C@H]1C[C@@H](N)CN(c2ccc(Cl)c3ncccc23)C1 [Example 23, (3R,5S)-1-(8-chloro-5-quinolyl)-5-methyl-piperidin-3-amine] | -16 | 35 | – | – | – | –
C[C@@H]1CN(c2ccc(Cl)c3ncccc23)C[C@H](C(=O)NC2CCN(C)CC2)O1 [Example 24, (2R,6R)-4-(8-chloro-5-quinolyI)-6-methyl-N-(1-methyl-4-piperidyl)morpholine-2-carboxamide] | -20 | -6 | – | – | – | –
C[C@@H]1CN(c2ccc(C(F)(F)F)c3ncccc23)C[C@H](C(=O)N2CCC3(CCNC3)C2)O1 (some centres unmarked) [Example 36] | 1 | -10 | – | – | – | –
C[C@@H]1CN(c2ccc(C(F)(F)F)c3ncccc23)C[C@H](C(=O)NC2CC3CNCC(C3)C2)O1 (stereo partly drawn) [Example 37, (2R,6R)-N-(3-azabicyclo[3.3.1]nonan-7-yl)-6-methyl-4-[8-(trifluoromethyl)-5-quinolyl]morpholine-2-carboxamide] | 4 | 3 | – | – | – | –
C[C@@H]1CN(c2ccc(Br)c3ncccc23)C[C@H](C(=O)NC2CCN(C)CC2)O1 [Example 42, (2R,6R)-4-(8-bromo-5-quinolyl)-6-methyl-N-(1-methyl-4-piperidyl)morpholine-2-carboxamide] | -4 | -3 | – | – | – | –
